According to ChEMBL document CHEMBL2375331, “Daphnane-type diterpenes with inhibitory activities against human cancer cell lines from Daphne genkwa” (Bioorg Med Chem Lett, 2013):
pIC50: −log10 of the molar value.

Tests used:
Type in all cases: functional, cell-based
U-937 = assay: Cytotoxicity against human U937 cells after 48 hrs by MTT assay; conditions: U-937, 48 h
HCT-116 = assay: Cytotoxicity against human HCT116 cells after 48 hrs by MTT assay; conditions: HCT-116, 48 h
K562 = assay: Cytotoxicity against human K562 cells after 48 hrs by MTT assay; conditions: K562, 48 h
HL-60 = assay: Cytotoxicity against human HL60 cells after 48 hrs by MTT assay; conditions: HL-60, 48 h
MCF7 = assay: Cytotoxicity against human MCF7 cells after 48 hrs by MTT assay; conditions: MCF7, 48 h
A549 = assay: Cytotoxicity against human A549 cells after 48 hrs by MTT assay; conditions: A549, 48 h
HeLa = assay: Cytotoxicity against human HeLa cells after 48 hrs by MTT assay
HepG2 = assay: Cytotoxicity against human HepG2 cells after 48 hrs by MTT assay; conditions: HepG2, 48 h
HT-1080 = assay: Cytotoxicity against human HT1080 cells after 48 hrs by MTT assay; conditions: HT-1080, 48 h
[1] = Cytotoxicity against human A375-S2 cells after 48 hrs by MTT assay; conditions: A375-S2, 48 h

Row | SMILES | pIC50 (U-937) | pIC50 (HCT-116) | pIC50 (K562) | pIC50 (HL-60) | pIC50 (MCF7) | pIC50 (A549) | pIC50 (HeLa) | pIC50 (HepG2) | pIC50 (HT-1080) | pIC50 [1]
1 | C=C(C)[C@]12C[C@@H](C)[C@@]34OC(c5ccccc5)(O[C@@H]1[C@@H]3[C@H](O)[C@](O)(COC(=O)/C=C/C=C/CCCCC)[C@@H](O)[C@@]1(O)[C@H]4C[C@H](C)[C@@H]1O)O2 | 4.62 | 4.56 | 4.62 | 4.69 | < 4.30 | 4.65 | 4.58 | 4.64 | 4.52 | 4.59
2 | C=C(C)[C@@]1(O)[C@H](OC(=O)/C=C/C=C/CCCCC)[C@@H]2[C@@H]3O[C@]3(CO)[C@@H](O)[C@]3(O)C(=O)C(C)=C[C@H]3[C@@]2(O)[C@H](C)[C@H]1OC(=O)c1ccccc1 [YUANHUAOATE E] | 4.93 | 4.78 | 4.54 | 4.73 | < 4.30 | 4.87 | 4.78 | 4.96 | 4.74 | 4.58
3 | C=C(C)[C@@]12O[C@@]3(c4ccccc4)O[C@@H]1[C@@H]1[C@@H]4O[C@]4(CO)[C@@H](O)[C@]4(O)C(=O)C(C)=C[C@H]4[C@@]1(O3)[C@H](C)[C@H]2OC(=O)c1ccccc1 | 4.88 | 4.53 | 4.65 | 4.61 | 5.63 | 4.72 | 4.72 | 4.62 | > 7.00 | 4.77
4 | C=C(C)[C@@]12OC3(c4ccccc4)O[C@@H]1[C@@H]1[C@H](O)[C@](O)(CO)[C@@H](O)[C@]4(O)C(=O)[C@@H](C)C=C4[C@@]1(O3)[C@H](C)[C@H]2OC(=O)c1ccccc1 | 4.52 | < 4.30 | 4.33 | 4.56 | 4.47 | 4.57 | 4.61 | 4.56 | 4.79 | 4.84
